Experiment: xn = mol fraction of the nth substance listed

Cc1ccccc1 + CCO
Details | viscosity [mPa·s]
293.2 K, 101.32 kPa, x2 = 0.05 | 0.568
293.2 K, 101.32 kPa, x2 = 0.136 | 0.587
293.2 K, 101.32 kPa, x2 = 0.28 | 0.616
293.2 K, 101.32 kPa, x2 = 0.55 | 0.731
293.2 K, 101.32 kPa, x2 = 0.735 | 0.861
303 K, 101 kPa, x1 = 0.1006 | 0.821
303 K, 101 kPa, x1 = 0.2012 | 0.786
303 K, 101 kPa, x1 = 0.3009 | 0.724
303 K, 101 kPa, x1 = 0.3981 | 0.686
303 K, 101 kPa, x1 = 0.5016 | 0.643
303 K, 101 kPa, x1 = 0.6052 | 0.613
303 K, 101 kPa, x1 = 0.7001 | 0.602
303 K, 101 kPa, x1 = 0.8095 | 0.569
303 K, 101 kPa, x1 = 0.9011 | 0.551
303 K, 101.33 kPa, x2 = 0.3333 | 0.574
303 K, 101.33 kPa, x2 = 0.5714 | 0.651
303 K, 101.33 kPa, x2 = 0.75 | 0.774
303 K, 101.33 kPa, x2 = 0.8889 | 0.927
303.15 K, 101.33 kPa, x1 = 0.0692 | 0.893
303.15 K, 101.33 kPa, x1 = 0.1849 | 0.803
303.15 K, 101.33 kPa, x1 = 0.3191 | 0.699
303.15 K, 101.33 kPa, x1 = 0.5285 | 0.596
303.15 K, 101.33 kPa, x1 = 0.5858 | 0.575
303.15 K, 101.33 kPa, x1 = 0.6901 | 0.546
303.15 K, 101.33 kPa, x1 = 0.7906 | 0.527
303.15 K, 101.33 kPa, x1 = 0.8565 | 0.519
303.15 K, 101.33 kPa, x1 = 0.9213 | 0.524
308.15 K, 101.33 kPa, x1 = 0.0692 | 0.814
308.15 K, 101.33 kPa, x1 = 0.1849 | 0.736
308.15 K, 101.33 kPa, x1 = 0.3191 | 0.642
308.15 K, 101.33 kPa, x1 = 0.5285 | 0.552
308.15 K, 101.33 kPa, x1 = 0.5858 | 0.533
308.15 K, 101.33 kPa, x1 = 0.6901 | 0.507
308.15 K, 101.33 kPa, x1 = 0.7906 | 0.491
308.15 K, 101.33 kPa, x1 = 0.8565 | 0.486
308.15 K, 101.33 kPa, x1 = 0.9213 | 0.493
313 K, 101.33 kPa, x2 = 0.3333 | 0.504
313 K, 101.33 kPa, x2 = 0.5714 | 0.557
313 K, 101.33 kPa, x2 = 0.75 | 0.654
313 K, 101.33 kPa, x2 = 0.8889 | 0.778
323 K, 101.33 kPa, x2 = 0.3333 | 0.446
323 K, 101.33 kPa, x2 = 0.5714 | 0.479
323 K, 101.33 kPa, x2 = 0.75 | 0.557
323 K, 101.33 kPa, x2 = 0.8889 | 0.648

c1ccc2ccccc2c1 + Nc1ccccc1
viscosity [mPa·s]
Details | 308.15 K | 313.15 K | 318.15 K | 323.15 K
101 kPa, x1 = 0.2092 | 2.365 | 2.092 | 1.868 | 1.687
101 kPa, x1 = 0.3036 | 2.224 | 1.988 | 1.783 | 1.616
101.33 kPa, x1 = 0.209 | 2.365 | 2.092 | 1.868 | 1.687
101.33 kPa, x1 = 0.2092 | 2.365 | – | – | –
101.33 kPa, x1 = 0.2497 | 2.291 | – | – | –
101.33 kPa, x1 = 0.3 | 2.224 | 1.988 | 1.783 | 1.616
101.33 kPa, x1 = 0.3036 | 2.224 | – | – | –
